We go through twelve compounds from PMC9103184, “Kunitz-Type Peptides from Sea Anemones Protect Neuronal Cells against Parkinson’s Disease Inductors via Inhibition of ROS Production and ATP-Induced P2X7 Receptor Activation” (International Journal of Molecular Sciences, 2022).

Bridge positions count the residues as written; N and C are the ends. Ends that are not written are not given here.

The subject of series [1] is TRPV1 channels. Put plainly: Electrophysiology on TRPV1 channels expressed in Xenopus laevis oocytes. The series is classed as cell-based. The protocol:
Oocytes were injected with 50 nL of cRNA at a concentration of 1 ng/nL using a micro-injector (Drummond Scientific, Broomall, PA, USA).

Series [2] concerns P2X7R. Put plainly: ATP-induced YO-PRO-1 uptake in Neuro-2a cells. The series is classed as cell-based, murine. The protocol: Figure 11 The effects of the peptides on ATP-induced Neuro-2a cell viability and activation of P2X7R. (a) Impact of the peptides on Neuro-2a cell viability in the presence of 4 mM ATP. The peptides were tested at concentrations of 0.01, 0.1, and 1.0 μM. Cells were incubated with peptides for 1 h at 37 °C, then for 48 h with ATP. (b) Effects of the peptides (0.01, 0.1, and 1.0 μM) on YO-PRO-1 uptake in Neuro-2a cells. ATP was used as a P2X7R agonist. A438079 (10 μM) was used as a standard inhibitor of P2X7R. The peptide effects were evaluated against the effects of ATP. The data are shown as means ± SE; *—p < 0.05 compared to the effect of ATP alone.
For the uptake measurements of the large cationic dye YO-PRO-1, the peptides at final concentrations of 0.01, 0.1, and 1.0 μM were added to the culture medium with Neuro-2a cells and further incubated for 1 h at 37 °C with 5% CO2. Then, the cells were washed once with Hanks’ balanced salt solution (HBSS) (140 mM NaCl, 5 mM KCl, 0.8 mM MgCl2, 2 mM CaCl2, 10 mM glucose, 10 mM HEPES, pH 7.4) and filled with 180 μL of the same buffer. YO-PRO-1 (Sigma-Aldrich, St. Louis, MO, USA) was loaded into the wells to a final concentration of 5 μM, the cells were incubated for 15 min at 37 °C, then ATP was added to a final concentration of 4 mM and the plates were incubated for an additional 10 min. Then, the cells were washed three times with the buffer solution and the fluorescence intensity levels were measured with a PHERAstar FS plate reader (BMG, Germany) at λex = 480 nm and λem = 520 nm. A438079 (10 μM), a standard inhibitor of P2X7R, was used as positive control. The effectiveness of the peptides was evaluated relative to the control with ATP.

In series [3] the test system is P2X7R. The series is classed as cell-based, murine.
Protocol: Neuro-2a cells were pre-incubated with studied peptides for 1 h at 37 °C with 5% CO2. Then, cells were washed twice with culture medium and loaded with 5 μM Fluo-8 dye (Sigma-Aldrich, St. Louis, MO, USA) and 1 μM Pluronic F-127 (Sigma-Aldrich, St. Louis, MO, USA) and incubated for 40 min at room temperature in HBSS saline at pH 7.4. Then, the cells were washed two times with the same solution but without the fluorescent dye and were incubated for 20–30 min at room temperature in the dark. In some experiments, Ca^2+-free medium was used. Here, 140 mM NaCl, 5 mM KCl, 0.8 mM MgCl2, 10 mM glucose, 10 mM HEPES, 5 mM EGTA, pH 7.4. ATP (1 mM final concentration) were added using a robotic microinjector (20 μL/well), then 10 s later the baseline recording and additional readings were taken up to 50 s at 1 s intervals. The standard P2X7R inhibitor A438079 (Sigma-Aldrich, St. Louis, MO, USA) was used as the inhibitory control. Ionomycin (Sigma-Aldrich, St. Louis, MO, USA) was used to generate a generic calcium signal in cells. Fluo-8 was excited at 488 nm, and the emission at 520 nm was measured with a PHERAstar plate reader (BMG LABTECH, Ortenberg, Germany).
Series [4] deals with Neuro-2a cells. As to the kind of experiment: ATP-induced Neuro-2a cell death (MTT). The series is classed as cell-based, murine.
Protocol: Figure 11 The effects of the peptides on ATP-induced Neuro-2a cell viability and activation of P2X7R. (a) Impact of the peptides on Neuro-2a cell viability in the presence of 4 mM ATP. The peptides were tested at concentrations of 0.01, 0.1, and 1.0 μM. Cells were incubated with peptides for 1 h at 37 °C, then for 48 h with ATP. […] The peptide effects were evaluated against the effects of ATP. The data are shown as means ± SE; *—p < 0.05 compared to the effect of ATP alone. […]
Then, 20 μL of substance solution was loaded into the cells and incubated for 24 h followed by replacement of the medium with tested substances and 100 μL of fresh medium. […] The absorbance of the converted dye formazan was measured using a Multiskan FC microplate photometer (Thermo Scientific, Waltham, MA, USA) at a wavelength of 570 nm [83, 84]. […] Cytotoxic activity was expressed as the percentage of cell viability.
At the end of the preincubation period, the cells were treated with peptides at concentrations of 0.01, 0.1, 1, and 10 μM for 1 h, after which 600 μM paraquat, 10 μM rotenone, 80 μM of 6-OHDA, 1 mM MPP^+, or 4 mM ATP (Sigma-Aldrich, St. Louis, MO, USA) was added. […] Cell viability was measured after 24 h (with paraquat, rotenone and 6-OHDA) or 48 h (with ATP and MPP^+) using the MTT assay [85, 86, 87].
Series [5] has as its target trypsin.
Series [6] concerns the target recombinant human P2X7R (47-334, complete extracellular domain) (human) (UniProt Q99572).
Series [7] shares this target. The source holds these as a separate data set.
Series [8] addresses T1, Recombinant human P2X7R (Homo sapiens, UniProt Q99572).
T1 construct: complete extracellular domain, 36.8 kDa; purchased Abbexa LTD, Cambridge, UK
T1 sequence (Q99572 47-334): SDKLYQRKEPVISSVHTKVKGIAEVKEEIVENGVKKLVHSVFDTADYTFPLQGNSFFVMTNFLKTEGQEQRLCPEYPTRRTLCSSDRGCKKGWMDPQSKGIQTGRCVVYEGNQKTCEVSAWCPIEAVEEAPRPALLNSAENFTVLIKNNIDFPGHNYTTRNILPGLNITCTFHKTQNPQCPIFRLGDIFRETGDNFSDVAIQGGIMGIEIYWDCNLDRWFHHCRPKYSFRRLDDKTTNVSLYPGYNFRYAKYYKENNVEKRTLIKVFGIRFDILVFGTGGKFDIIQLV
As to the kind of experiment: SPR binding to immobilized P2X7R extracellular domain. To be noted: Biacore 3000, CM5 chip, P2X7R a.a. 47–334, HBS-N pH 7.4, 25 °C, peptide 5–100 μM, two-state (conformational change) binding model. The protocol: SPR analyses were performed based on using a Biacore 3000 optical biosensor (GE Healthcare, USA) running under the program “Biacore 3000 Control Software v.1.0”. Recombinant human P2X7R (sequence positions of 47–334 a.a.; complete extracellular domain, 36.8 kDa) (Abbexa LTD, Cambridge, UK) was covalently immobilized on the carboxymethylated surface of the Biacore CM5 sensor chip (Cytiva, Chicago, IL, USA), then activated by the 1:1 mixture of 0.2 M 1-ethyl-3-(3-dimethylaminopropyl)carbodiimide hydrochloride (EDC) and 0.05 M N-hydroxysuccinimide (NHS) via the injection of receptor solution (15 μg/mL) in 10 mM sodium acetate (pH 5.0) for 10 min at a flow rate of 5 μL/min. The reference channel without immobilized P2X7R was used to correct the effects of the non-specific binding of peptides to the chip surface. The quantity of the immobilized hP2X7R equaled 12300 RU (resonance units, 1 RU corresponds to 1 pg receptor bound per mm^2 of chip surface). HBS-N (10 mM HEPES, 150 mM NaCl, pH 7.4) (Cytiva, USA) was used as a running buffer for SPR assays. Peptide solutions in the HBS-N buffer over a concentration range of 5–100 μM were passed through biosensor channels (working and reference) at a flow rate of 10 µL/min for 3 min at 25 °C. Dissociation of the formed peptide–P2X7R complexes was registered at the same flow rate for no less than 6 min from the moment of sample injection. […]

A short description of series [9]: Thermal stability by CD spectroscopy. The series is classed as physicochemical. To be noted: CD spectra and residual trypsin-inhibitory activity. The procedure: Figure 5 Evaluation of the thermal stability of peptides in deionized water via CD spectroscopy. Recordings of the CD spectra of HCIQ2c1 (a), HMIQ3c1 (b), HCIQ4c7 (c), and HCIQ1c9 (d) were conducted in the far UV region (190–240 nm) after the solutions were incubated over a temperature range from 25 °C to 100 °C for 20–25 min.
Circular dichroism (CD) spectra were recorded on a Chirascan-Plus CD spectropolarimeter (Applied Photophysics, Leatherhead, UK) in quartz cuvettes with an optical path length of 0.1 cm for the peptide spectrum region. The peptides were dissolved in deionized water ([…]) and incubated at temperatures ranging from 25 °C to 100 °C for 20–25 min before recording the CD spectra. The secondary structure elements were calculated using the Provencher–Glockner method using advanced Provencher calculation programs from the CDPro software package (Leatherhead, UK).

Series [10] deals with trypsin. Put plainly: enzyme inhibition kinetics (Dixon's method); trypsin 208 nM, substrate BAPNA 0.6 and 1.2 mM, peptide 0-20 uM; three parallel experiments.
In series [11] the test system is 6-OHDA-treated cells. To be noted: cited from earlier work.
In series [12] the test system is Kv channels. To be noted: cited from earlier work.
For series [13] the following is noted: calculated using the CDSSR algorithm [54], cited from earlier work. The source says:
Table 1 The peptide secondary structural elements. | column: α-Helix / I; α-Helix / II; α-Helix / III; β-Structure / I; β-Structure / II; β-Structure / III; β-Turn; Unordered Structure

The target in series [14] is T2, trypsin (Bos taurus, UniProt P00760).
T2 sequence (P00760 24-246): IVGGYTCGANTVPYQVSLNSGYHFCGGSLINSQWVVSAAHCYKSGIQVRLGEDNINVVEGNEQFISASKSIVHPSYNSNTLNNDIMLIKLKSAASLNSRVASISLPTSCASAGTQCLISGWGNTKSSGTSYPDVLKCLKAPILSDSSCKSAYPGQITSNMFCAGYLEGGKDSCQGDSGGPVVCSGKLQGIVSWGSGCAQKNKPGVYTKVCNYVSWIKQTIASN
As to the kind of experiment: Residual trypsin-inhibitory activity after heating. The series is classed as biochemical. As to conditions: after heating to 100 °C; 7 μM peptide, 1.2 mM BAPNA, 37 °C, three parallel experiments. The protocol: Figure 6 The effects of temperature on the trypsin-inhibitory activity levels of peptides. Peptides were incubated at the temperatures for 30 min and their residual activities were measured.
The temperature influence on the activity levels of peptides was assessed by measuring their residual inhibitory activity levels. After preincubation at temperatures ranging from 25 to 100 °C for 25 min, the peptide solutions were added to trypsin solution and the reaction mixtures were incubated for 10 min at 37 °C, then 1.2 mM BAPNA was added, followed by incubation at 37 °C for 30 min. The final concentration of the peptides was 7 μM. Substrate hydrolysis was measured at 410 nm. The residual activity was calculated based on the results of three parallel experiments according to the following equation [60]:% = (1 − residual enzyme activity/enzyme activity without inhibitor) × 100

Kunitz-type peptide HCIQ1c9, sequence (A0A6B7FEJ3 15-72 limits assumed): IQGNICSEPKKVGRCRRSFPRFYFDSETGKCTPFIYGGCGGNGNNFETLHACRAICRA

On to `Oc1cc2c(cc1O)CN(C(=S)NCCc1ccc(Cl)cc1)CCC2` [capsazepine], for which the “effect on TRPV1 channels” value in series [1] (capsazepine 10 µM (antagonist control)) is given as “blocking of the channels”.
As for `Clc1cccc(-c2nnnn2Cc2cccnc2)c1Cl` [A438079], the “reduction of ATP-induced YO-PRO-1 uptake” value in [2] (10 μM (standard inhibitor), 4 mM ATP, means ± SE) was 18.5 ± 3.2%. In addition, the “decrease in ATP-induced stable calcium response” value in series [3] (10 μM, 1 mM ATP, Fluo-8, relative to control, means ± SE) is 47.7 ± 4.4%. The “increase in viability of ATP-treated cells” value in series [4] (10 μM, pre-incubation, 4 mM ATP 48 h, vs ATP alone) is 21.3 ± 0.5%.
With `COc1cc(CNC(=O)CCCC/C=C/C(C)C)ccc1O` [capsaicin], the “effect on TRPV1 channels” value in series [1] (capsaicin 2 µM (agonist control)) is “activation of the TRPV1 channels”.
`Nc1ncnc2c1ncn2[C@@H]1O[C@H](COP(=O)(O)OP(=O)(O)OP(=O)(O)O)[C@@H](O)[C@H]1O` [ATP, adenosine-5’-triphosphate]: the “increase in YO-PRO-1 dye penetration” value in [2] (ATP 4 mM) is on record as 49.4 ± 5.9%. For the same compound, the “effect on [Ca2+]i” value in series [3] (ATP 1 mM) is “large sustained increase in [Ca^2+]i”. In addition, the “total dead cells after ATP” value in [4] (ATP 4 mM, 48 h, compared with control cells) is on record as “up to 30.15 ± 0.68%”.
Compound Kunitz-type peptide HCIQ4c7 displayed a decrease of trypsin-inhibitory activity (BAPNA hydrolysis) of 7 uM peptide after preincubation at 25 to 100 °C; value after 100 °C in [5] of 7 % decrease. Moreover, in series [6], the reduction of ATP (4 mM)-induced YO-PRO-1 dye uptake into mouse Neuro-2a cells; peptide at 0.01, 0.1 and 1.0 uM; value at 1 uM came to 28.5%. Moreover, in [7], the decrease of the stable Ca2+ response (Fluo-8) to 1 mM ATP in mouse Neuro-2a cells pre-incubated with the peptide at 0.1, 1.0 and 10.0 uM; value at 10 uM is 59.1%.
As a reminder, the Kd is the constant that tells how readily two partners part at equilibrium. Consider “IQGNICSEPKKVGRCRGSFPRFYFDSETGKCTPFIYGGCGGNGNNFETLRRCRAICRA (disulfide 6-56, 15-39, 31-52) [HMIQ3c1]”, for which, in series [8], the Kd was found to be 43.3 µM. The “thermostability: retains conformation and biological activity until” value in series [9] is 90–100 °C.
As usually defined, the Ki is the equilibrium dissociation constant of an inhibitor or competing ligand from its target. For the compound Kunitz-type peptide HCIQ1c9, the Ki in series [10] was found to be 0.63 µM. Moreover, in [5], the decrease of trypsin-inhibitory activity (BAPNA hydrolysis) of 7 uM peptide after preincubation at 60 to 100 °C lay within 30 to 70 % decrease.
As for “HCRG2: Kunitz-type peptide from H. crispa, C0HJU7 (RGICLEPKVVGPCKARIRRFYYDSETGKCTPFIYGGCGGNGNNFETLHACRGICRA; UniProt C0HJU7 1-56, looked up)”, the “effect on ROS production in 6-OHDA-treated cells” value in series [11] was “maintained ROS production in 6-OHDA-treated cells at the reference level”. The “activity on Kv channels” value in series [12] is listed as “blockers of Kv channels”.
For “HCRG1: Kunitz-type peptide from H. crispa, C0HJU6 (RGICSEPKVVGPCKAGLRRFYYDSETGECKPFIYGGCKGNKNNFETLHACRGICRA; UniProt C0HJU6 1-56, looked up)”, the “effect on ROS production in 6-OHDA-treated cells” value in series [11] was “maintained ROS production in 6-OHDA-treated cells at the reference level”. Besides, the “activity on Kv channels” value in series [12] is recorded as “blockers of Kv channels”.
As for Kunitz-type peptide HMIQ3c1, in series [6], the reduction of ATP (4 mM)-induced YO-PRO-1 dye uptake into mouse Neuro-2a cells; peptide at 0.01, 0.1 and 1.0 uM; value at 0.1 uM was determined as 28.1%. Also, the decrease of the stable Ca2+ response (Fluo-8) to 1 mM ATP in mouse Neuro-2a cells pre-incubated with the peptide at 0.1, 1.0 and 10.0 uM; value at 10 uM in [7] was found to be 40.6%.
For “SHPI-1: Kunitz-type peptide from Stichodactyla helianthus, UniProtKB P31713 (SICSEPKKVGRCKGYFPRFYFDSETGKCTPFIYGGCGGNGNNFETLHQCRAICRA; UniProt P31713 1-55, looked up)”, in [13], the “Unordered Structure” value is on record as 40.0 and the β-Turn is given as 18.2. In addition, in series [13] (summary value), the “α-Helix III” value was 20.0 and the “β-Structure III” value is listed as 21.8.
Turning to “IQGNICSEPKKVGRCRESFPRFYFDSETGKCTPFIYGGCGGNGNNFETLHACRAICRA (disulfide 6-56, 15-39, 31-52) [HCIQ4c7]”, the Kd in series [8] is 45.5 µM. Further, the “decrease in trypsin-inhibitory activity after heating” value in series [14] was found to be 7%. Also, in series [9], the “thermostability: retains conformation and biological activity until” value was 90–100 °C.
